Experiment: pKa of ionizable lipids (Tables 1 to 3)
Format: physicochemical
Conditions: Table 2

CCCCCCCC(=O)N(CCCN(C)C)C(CCCCCCCCC(=O)OC(CCCCCC)CCCCCC)CCCCCCCCC(=O)OC(CCCCCC)CCCCCC [II-10]
pKa: 6.16
